Cytotoxicity data for one molecule are collected here from patent publication US5962456A, “N-acylpiperazine derivative, anti-ulcer drug, and antibacterial drug” (Shiseido Co., Ltd., priority 1996, dated 1999).

SMILES strings stand for the structures.

A short description of this data set: MTT: Cell Damaging and Protecting Effect Test. The class given is cell-based, rabbit (male Japanese White). To be noted: rabbit, gastric corpus mucosa cells, final concentration 10^-4 M, smaller value is better, read-out: MTT cell damaging rate. The source says:
MTT: Cell Damaging and Protecting Effect Test
It is confirmed that there is no toxicity in cell level. Those having a toxicity in cell level are inappropriate as an anti-ulcer drug.
A male Japanese White rabbit (2.5 to 3 kg) was anesthetized to death by Nembutal™ and, immediately thereafter, its stomach was removed. The greater curvature of the stomach was incised so as to remove the stomach contents therefrom. After the mucosal surface was washed with HBSS (Hanks' Balanced Salt Solution), the stomach in ice-cooled HBSS was transferred to a laboratory. Then, after the pyloric antrum was removed, the gastric corpus mucosa was separated by a spatula and then minced into 2 to 3 mm^3 pieces in BME (Basal Medium Eagle). Thereafter, these pieces were shaken at 120 to 130 cycles/minute for 15 minutes at 37° C. in BME 60 ml containing 280 U/ml of dispase and 30 to 50 U/ml of collagenase. Here, the concentration of collagenase was appropriately changed for each lot in view of the state of cells. The pieces were washed twice with EBSS (Earle's Balanced Salt Solution) containing 1 mM of EDTA and then shaken in MEM (Minimum Essential Medium) containing 1 mM of EDTA at 37° C. for 5 minutes. Subsequently, they were shaken in the dispase and collagenase having the same concentrations as those mentioned above for 15 minutes so as to remove the supernatant and then further shaken at 37° C. for 50 to 60 minutes at 120 to 130 cycles/minute. Then, after being washed twice with HBSS, Ham F12 containing 2% of Ultrocer G™ was used to attain the concentration of 1×10^6 cells/ml. Thus formed suspension was dispensed in each well of a 96-well plate by 200 μl. The plate was incubated in the atmosphere composed of 5% CO2 and 95% air at 37° C. for three days so as to attain a confluent state and then subjected to MTT assay.
The sample compound was dissolved in DMSO so as to attain a concentration of 10^-2 M and then diluted with HBSS containing 2% of Ultrocer G™ so as to attain a final concentration of 10^-4 M. To each group, which 8 wells were used for, 10 μl of MTT reagent was added immediately after 100 μl of the medium in each well was exchanged for same volume of the resulting solution of the sample compound. After being incubated in an atmosphere composed of 5% CO2 and 95% air at 37° C. for 4 hours, thus formed solution was centrifuged and then its supernatant was discarded. Subsequently, 100 μl of 100% ethanol was added to the residue so as to dissolve MTT formazan. Then, the absorbance (OD: 570 to 630) was measured by a microplate reader. This method utilizes a phenomenon in which MTT is changed to MTT formazan only by mitochondria of living cells so as to change color.
The cell damaging or cell protecting effect of the sample compound at the final concentration of 10^-4 M was expressed as cell damaging rate (%) as follows:
cell damaging rate (%)=(1-(absorbance in sample group/absorbance in control group))×100
Accordingly, the smaller rate value is better in the cell damage.

Take `CC(C)=CCC/C(C)=C/COc1ccc(C(=O)N2CCN(CCNC(=O)c3ccc4c(c3)OCO4)CC2)cc1` [Example 1, 1-(4-geranyloxy)benzoyl-4-[2-(piperonyloylamino)ethyl]piperazine]: the cytotoxicity at 4 h, 100 µM was 21%.
